Experimental data from the supplement of paper PMC6045584.
± gives the standard deviation of the averaged measurements.

How the values were obtained:
[1] = compound: Cn1ncnc1[C@H]1c2n[nH]c(=O)c3cc(F)cc(c23)N[C@@H]1c1ccc(F)cc1 [BMN-673]; assay: surviving fraction relative to DMSO-only wells; higher = less growth inhibition; conditions: exposure time: 5 days
In short: (§1)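 Surviving fraction was calculated by normalising CellTiter-Glo luminescence to the median of DMSO-only wells. Tumour cell lines in log phase were seeded in 384-well plates at 250–500 cells per well, and 24 hours later were exposed continuously for five days to inhibitors at 0.5, 1, 5, 10, 50, 100, 500 and 1000 nM.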

[2] = compound: C[C@@H]1CN(CC(=O)Nc2ccc3c(c2)Cc2cccc(-c4cc(=O)cc(N5CCOCC5)o4)c2S3)C[C@H](C)O1; assay: as above; conditions: exposure time: 5 days
In short: as §1

Test System | surviving fraction ([1]; 0.5 nM) | surviving fraction ([1]; 1 nM) | surviving fraction ([1]; 5 nM) | surviving fraction ([1]; 10 nM) | surviving fraction ([1]; 50 nM) | surviving fraction ([1]; 100 nM) | surviving fraction ([1]; 500 nM) | surviving fraction ([1]; 1000 nM) | surviving fraction ([2]; 0.5 nM) | surviving fraction ([2]; 1 nM) | surviving fraction ([2]; 5 nM) | surviving fraction ([2]; 10 nM) | surviving fraction ([2]; 50 nM) | surviving fraction ([2]; 100 nM) | surviving fraction ([2]; 500 nM) | surviving fraction ([2]; 1000 nM)
SCC47 HEADNECK | 1.1 ± 0.089 | 1.13 ± 0.13 | 1.13 ± 0.015 | 1.12 ± 0.058 | 1.12 ± 0.039 | 1.03 ± 0.062 | 0.937 ± 0.1 | 0.784 ± 0.1 | 1.06 ± 0.1 | 1.04 ± 0.036 | 1.1 ± 0.057 | 1.06 ± 0.075 | 1.04 ± 0.042 | 1.09 ± 0.04 | 1.05 ± 0.064 | 1.12 ± 0.093
SCC90 HEADNECK | 1.05 ± 0.046 | 1.02 ± 0.031 | 1.01 ± 0.067 | 1.02 ± 0.059 | 0.813 ± 0.04 | 0.8 ± 0.13 | 1.17 ± 0.15 | 1.15 ± 0.033 | 1.01 ± 0.16 | 1.03 ± 0.11 | 1.07 ± 0.027 | 1.12 ± 0.033 | 1.02 ± 0.042 | 0.952 ± 0.077 | 0.963 ± 0.03 | 0.971 ± 0.12
SG27 HEADNECK | 1.15 ± 0.04 | 1.08 ± 0.11 | 1.06 ± 0.046 | 0.978 ± 0.12 | 1.02 ± 0.17 | 0.927 ± 0.12 | 0.917 ± 0.038 | 0.877 ± 0.16 | 1.02 ± 0.1 | 0.976 ± 0.047 | 1.13 ± 0.079 | 1.02 ± 0.15 | 0.95 ± 0.056 | 0.988 ± 0.11 | 1.01 ± 0.061 | 1.03 ± 0.1
SG28 HEADNECK | 1.09 ± 0.14 | 1.064 ± 0.0085 | 1.12 ± 0.13 | 1.06 ± 0.012 | 1.01 ± 0.12 | 0.996 ± 0.065 | 1.01 ± 0.15 | 1.01 ± 0.074 | 1.07 ± 0.081 | 1.11 ± 0.13 | 1.04 ± 0.093 | 0.986 ± 0.033 | 0.9 ± 0.054 | 0.915 ± 0.047 | 0.9 ± 0.1 | 0.87 ± 0.11
SG31 HEADNECK | 1.18 ± 0.14 | 1.12 ± 0.028 | 1.08 ± 0.24 | 0.911 ± 0.15 | 0.969 ± 0.046 | 0.787 ± 0.09 | 0.916 ± 0.064 | 0.751 ± 0.046 | 0.946 ± 0.076 | 0.916 ± 0.1 | 1.06 ± 0.17 | 0.953 ± 0.07 | 0.971 ± 0.12 | 0.964 ± 0.09 | 1.08 ± 0.087 | 1.06 ± 0.098
SG32 HEADNECK | 1.13 ± 0.067 | 0.975 ± 0.17 | 1.08 ± 0.29 | 0.985 ± 0.094 | 0.872 ± 0.12 | 1.22 ± 0.82 | 0.622 ± 0.0068 | 0.49 ± 0.044 | 1.16 ± 0.16 | 1.07 ± 0.2 | 1.12 ± 0.18 | 1.62 ± 0.39 | 0.939 ± 0.091 | 1.05 ± 0.047 | 0.74 ± 0.11 | 0.681 ± 0.082
SG43 HEADNECK | 1.19 ± 0.23 | 0.909 ± 0.061 | 0.694 ± 0.044 | 0.678 ± 0.046 | 0.74 ± 0.093 | 0.703 ± 0.089 | 0.678 ± 0.091 | 0.785 ± 0.056 | 0.871 ± 0.21 | 1.22 ± 0.069 | 1.03 ± 0.14 | 1.16 ± 0.14 | 1.37 ± 0.25 | 1.38 ± 0.36 | 1.31 ± 0.19 | 1.43 ± 0.061
SIHA CERVIX | 1.01 ± 0.055 | 1.03 ± 0.053 | 1.15 ± 0.062 | 1.05 ± 0.013 | 0.929 ± 0.038 | 0.784 ± 0.13 | 0.602 ± 0.035 | 0.454 ± 0.041 | 1.04 ± 0.022 | 1.1 ± 0.082 | 1.09 ± 0.0035 | 1.06 ± 0.023 | 1.04 ± 0.062 | 1.08 ± 0.084 | 1.02 ± 0.11 | 0.931 ± 0.051
SJSA1 BONE | 1.67 ± 0.078 | 1.72 ± 0.018 | 1.72 ± 0.12 | 1.86 ± 0.1 | 0.969 ± 0.054 | 1.27 ± 0.022 | 1.46 ± 0.06 | 1.12 ± 0.031 | 0.993 ± 0.05 | 1.04 ± 0.03 | 1.05 ± 0.029 | 1.06 ± 0.061 | 1 ± 0.017 | 1.05 ± 0.026 | 0.9383 ± 0.0074 | 0.892 ± 0.034
SKBR3 BREAST | 1.154 ± 0.0069 | 1.11 ± 0.12 | 0.863 ± 0.15 | 0.881 ± 0.044 | 0.774 ± 0.075 | 0.575 ± 0.078 | 0.492 ± 0.041 | 0.481 ± 0.014 | 1.06 ± 0.013 | 0.979 ± 0.19 | 0.937 ± 0.22 | 0.939 ± 0.088 | 0.9 ± 0.16 | 1.05 ± 0.13 | 0.886 ± 0.07 | 0.61 ± 0.033
SNU475 LIVER | 1.02 ± 0.034 | 1.01 ± 0.097 | 0.763 ± 0.47 | 0.99 ± 0.032 | 0.882 ± 0.087 | 0.851 ± 0.031 | 0.643 ± 0.025 | 0.508 ± 0.051 | 0.97 ± 0.022 | 1.02 ± 0.034 | 1.007 ± 0.0086 | 1.02 ± 0.027 | 0.876 ± 0.026 | 0.96133 ± 0.00058 | 0.863 ± 0.04 | 0.669 ± 0.036
SUM44 BREAST | 1.16 ± 0.29 | 1.02 ± 0.16 | 0.976 ± 0.12 | 0.798 ± 0.029 | 1.03 ± 0.21 | 0.98 ± 0.15 | 1.09 ± 0.2 | 0.988 ± 0.11 | 0.936 ± 0.036 | 0.936 ± 0.034 | 0.977 ± 0.028 | 0.968 ± 0.023 | 0.911 ± 0.044 | 0.915 ± 0.067 | 0.898 ± 0.083 | 0.892 ± 0.031
SUM149 BREAST | 0.857 ± 0.051 | 0.721 ± 0.068 | 0.301 ± 0.019 | 0.226 ± 0.023 | 0.176 ± 0.017 | 0.163 ± 0.014 | 0.149 ± 0.0045 | 0.145 ± 0.024 | 0.874 ± 0.049 | 0.885 ± 0.1 | 0.96 ± 0.089 | 0.862 ± 0.035 | 1.01 ± 0.017 | 0.917 ± 0.029 | 0.819 ± 0.11 | 0.667 ± 0.024
SUM149.B1*.S BREAST | 1.11 ± 0.036 | 1.03 ± 0.0064 | 1.05 ± 0.058 | 0.931 ± 0.059 | 0.808 ± 0.055 | 0.739 ± 0.063 | 0.451 ± 0.075 | 0.33 ± 0.052 | 1.07 ± 0.062 | 1.06 ± 0.064 | 1.05 ± 0.025 | 1.03 ± 0.027 | 1.07 ± 0.071 | 1.05 ± 0.016 | 1.08 ± 0.045 | 1.07 ± 0.074
SUM159 BREAST | 1.12 ± 0.016 | 1.104 ± 0.0035 | 1.07 ± 0.013 | 1.06 ± 0.011 | 1.079 ± 0.0027 | 1.057 ± 0.0089 | 1.04 ± 0.013 | 0.957 ± 0.031 | 1.08 ± 0.012 | 1.15 ± 0.11 | 1.11 ± 0.048 | 1.13 ± 0.11 | 1.11 ± 0.079 | 1.1 ± 0.023 | 1.13 ± 0.11 | 1.05 ± 0.029
SYO1 SYNOVIAL | 0.855 ± 0.052 | 0.783 ± 0.023 | 0.499 ± 0.0035 | 0.336 ± 0.0059 | 0.168 ± 0.0078 | 0.125 ± 0.0048 | 0.0544 ± 0.0063 | 0.0423 ± 0.00058 | 0.997 ± 0.021 | 1 ± 0.029 | 0.987 ± 0.049 | 1.07 ± 0.019 | 0.993 ± 0.023 | 1.03 ± 0.018 | 0.894 ± 0.019 | 0.781 ± 0.011
T47D BREAST | 1.01 ± 0.04 | 0.975 ± 0.036 | 0.872 ± 0.051 | 0.82 ± 0.026 | 0.714 ± 0.019 | 0.654 ± 0.023 | 0.535 ± 0.017 | 0.455 ± 0.0098 | 1.02 ± 0.018 | 1.01 ± 0.022 | 1.03 ± 0.013 | 0.9914 ± 0.0016 | 1.06 ± 0.027 | 1.049 ± 0.0087 | 1.047 ± 0.0069 | 0.945 ± 0.051
U2OS BONE | 0.9887 ± 0.0081 | 0.994 ± 0.055 | 0.969 ± 0.018 | 0.915 ± 0.029 | 0.834 ± 0.026 | 0.732 ± 0.029 | 0.658 ± 0.029 | 0.647 ± 0.038 | 1.06 ± 0.052 | 1.09 ± 0.057 | 1.08 ± 0.029 | 1.08 ± 0.025 | 1.1 ± 0.058 | 1.09 ± 0.061 | 1.03 ± 0.048 | 1.02 ± 0.05
VCAP PROSTATE | 1.11 ± 0.084 | 0.947 ± 0.086 | 0.995 ± 0.03 | 0.976 ± 0.08 | 0.758 ± 0.029 | 0.711 ± 0.12 | 0.397 ± 0.029 | 0.385 ± 0.017 | 1.01 ± 0.035 | 1.08 ± 0.066 | 1.11 ± 0.14 | 1.18 ± 0.15 | 1.19 ± 0.094 | 1.14 ± 0.11 | 0.922 ± 0.057 | 0.967 ± 0.079
VP229 BREAST | 1.09 ± 0.33 | 1.09 ± 0.16 | 1.1 ± 0.12 | 0.995 ± 0.091 | 0.969 ± 0.026 | 0.922 ± 0.17 | 0.951 ± 0.1 | 0.873 ± 0.19 | 1.03 ± 0.15 | 1.07 ± 0.05 | 1.09 ± 0.14 | 1.06 ± 0.07 | 0.9067 ± 0.0046 | 0.916 ± 0.14 | 1.11 ± 0.062 | 0.897 ± 0.075
YAMATO SYNOVIAL | 1.08 ± 0.09 | 1.05 ± 0.035 | 1.05 ± 0.07 | 0.852 ± 0.039 | 0.788 ± 0.014 | 0.675 ± 0.035 | 0.503 ± 0.029 | 0.452 ± 0.013 | 1.41 ± 0.1 | 1.44 ± 0.13 | 1.38 ± 0.1 | 1.46 ± 0.03 | 0.925 ± 0.031 | 0.965 ± 0.046 | 0.884 ± 0.14 | 0.855 ± 0.045
ZR751 BREAST | 1.23 ± 0.14 | 1.14 ± 0.15 | 1.04 ± 0.22 | 1 ± 0.15 | 1.01 ± 0.068 | 0.974 ± 0.11 | 1.04 ± 0.07 | 0.816 ± 0.017 | 1.01 ± 0.1 | 1.08 ± 0.19 | 1.02 ± 0.21 | 0.959 ± 0.13 | 0.951 ± 0.035 | 0.956 ± 0.076 | 1.06 ± 0.24 | 0.977 ± 0.071
